Data as given in ChEMBL document CHEMBL5500372, “Novel natural osthole-inspired amphiphiles as membrane targeting antibacterials against methicillin-resistant Staphylococcus aureus (MRSA)” (Eur J Med Chem, 2024).
Active and inactive are the calls of the source. The rule behind the calls is not given here.

Tests used:
Cell membrane [1] = assay: Induction of cytoplasmic membrane depolarization in methicillin-resistant Staphylococcus aureus clinical isolate 16 assessed as increase in fluorescence intensity measured after 35 mins by DiSC3-5 dye based fluorescence method; assay type: cell membranes
Cell membrane [2] = assay: Induction of cytoplasmic membrane permeabilization in methicillin-resistant Staphylococcus aureus clinical isolate 16 assessed as increase in fluorescence intensity measured after 35 mins by SYTOX green dye based fluorescence analysis
Staphylococcus aureus [3] = assay: Antibacterial activity against methicillin-resistant Staphylococcus aureus clinical isolate 11 measured after 18 hrs by CLSI based broth microdilution method; assay type: functional
Escherichia coli = assay: Antibacterial activity against Escherichia coli ATCC 25922 measured after 18 hrs by CLSI based broth microdilution method; assay type: functional
Staphylococcus aureus [4] = assay: Antibacterial activity against methicillin-resistant Staphylococcus aureus clinical isolate 22 measured after 18 hrs by CLSI based broth microdilution method; assay type: functional
Staphylococcus aureus [5] = assay: Antibacterial activity against methicillin-resistant Staphylococcus aureus clinical isolate 20 measured after 18 hrs by CLSI based broth microdilution method; assay type: functional
Staphylococcus aureus [6] = assay: Antibacterial activity against methicillin-resistant Staphylococcus aureus clinical isolate 21 measured after 18 hrs by CLSI based broth microdilution method; assay type: functional
Staphylococcus aureus [7] = assay: Antibacterial activity against Staphylococcus aureus ATCC 29213 measured after 18 hrs by CLSI based broth microdilution method; assay type: functional
[8] = Selectivity index, ratio of HC50 for hemolytic activity in sheep erythrocyte assessed as hemolysis to MIC for antibacterial activity against Staphylococcus aureus ATCC 29213; assay type: toxicity; conditions: sheep erythrocytes, read-out: Selectivity Index
Staphylococcus aureus [9] = assay: Antibacterial activity against methicillin-resistant Staphylococcus aureus clinical isolate 12 measured after 18 hrs by CLSI based broth microdilution method; assay type: functional
Staphylococcus aureus [10] = assay: Antibacterial activity against methicillin-resistant Staphylococcus aureus clinical isolate 17 measured after 18 hrs by CLSI based broth microdilution method; assay type: functional
Staphylococcus aureus [11] = assay: Antibacterial activity against methicillin-resistant Staphylococcus aureus clinical isolate 16 measured after 18 hrs by CLSI based broth microdilution method; assay type: functional
Staphylococcus aureus [12] = assay: Antibacterial activity against methicillin-resistant Staphylococcus aureus clinical isolate 14 measured after 18 hrs by CLSI based broth microdilution method; assay type: functional
Staphylococcus aureus [13] = assay: Antibacterial activity against methicillin-resistant Staphylococcus aureus clinical isolate 13 measured after 18 hrs by CLSI based broth microdilution method; assay type: functional
Staphylococcus aureus [14] = assay: Antibacterial activity against methicillin-resistant Staphylococcus aureus clinical isolate 23 measured after 18 hrs by CLSI based broth microdilution method; assay type: functional
[15] = Hemolytic activity in sheep erythrocyte assessed as hemolysis incubated for 1 hr by absorbance based analysis; assay type: toxicity, cell-based, Ovis aries; conditions: sheep erythrocytes
Staphylococcus aureus [16] = assay: Antibacterial activity against Staphylococcus aureus ATCC 29213 at 128 ug/ml measured after 20 passages by CLSI micro broth dilution method; assay type: functional, organism-based; conditions: dose 128.0 µg/ml

| Structure (SMILES) | Activity (Cell membrane [1]) | Activity (Cell membrane [2]) | MIC (Staphylococcus aureus [3]) | MIC (Escherichia coli) | MIC (Staphylococcus aureus [4]) | MIC (Staphylococcus aureus [5]) | MIC (Staphylococcus aureus [6]) | MIC (Staphylococcus aureus [7]) | selectivity ratio [8] | MIC (Staphylococcus aureus [9]) | MIC (Staphylococcus aureus [10]) | MIC (Staphylococcus aureus [11]) | MIC (Staphylococcus aureus [12]) | MIC (Staphylococcus aureus [13]) | MIC (Staphylococcus aureus [14]) | HC50 at 1 h [15] | Activity (Staphylococcus aureus [16]) |
| --- | --- | --- | --- | --- | --- | --- | --- | --- | --- | --- | --- | --- | --- | --- | --- | --- | --- |
| CC[C@H](C)[C@H](NC(=O)CN)C(=O)NCC(=O)N[C@@H](C)C(=O)N[C@H](C(=O)N[C@@H](CC(C)C)C(=O)N[C@@H](CCCCN)C(=O)N[C@H](C(=O)N[C@@H](CC(C)C)C(=O)N[C@H](C(=O)N[C@H](C(=O)NCC(=O)N[C@@H](CC(C)C)C(=O)N1CCC[C@H]1C(=O)N[C@@H](C)C(=O)N[C@@H](CC(C)C)C(=O)N[C@H](C(=O)N[C@@H](CO)C(=O)N[C@@H](Cc1c[nH]c2ccccc12)C(=O)N[C@H](C(=O)N[C@@H](CCCCN)C(=O)N[C@@H](CCCNC(=N)N)C(=O)N[C@@H](CCCCN)C(=O)N[C@@H](CCCNC(=N)N)C(=O)N[C@@H](CCC(N)=O)C(=O)N[C@@H](CCC(N)=O)C(N)=O)[C@@H](C)CC)[C@@H](C)CC)[C@@H](C)O)[C@@H](C)O)C(C)C)C(C)C | Active | Active | – | – | – | – | – | – | – | – | – | – | – | – | – | – | – |
| CC(C)=CCc1c(OCCCC[N+](C)(C)CC(=O)N(C(C)C)C(C)C)ccc2ccc(=O)oc12.[Br-] | – | – | 16 µg/mL | 128 µg/mL | 16 µg/mL | 16 µg/mL | 16 µg/mL | 16 µg/mL | 79.2 | 32 µg/mL | 16 µg/mL | 16 µg/mL | 16 µg/mL | 32 µg/mL | 16 µg/mL | 1270 µg/mL | – |
| CCN(CC)C(=O)C[N+](C)(C)CCCCOc1ccc2ccc(=O)oc2c1CC=C(C)C.[Br-] | – | – | 128 µg/mL | > 128 µg/mL | 64 µg/mL | 64 µg/mL | 64 µg/mL | 64 µg/mL | 19 | 128 µg/mL | 64 µg/mL | 64 µg/mL | 64 µg/mL | 128 µg/mL | 64 µg/mL | 1220 µg/mL | – |
| CCCNC(=O)C[N+](C)(C)CCCOc1ccc2ccc(=O)oc2c1CC=C(C)C.[Br-] | – | – | 128 µg/mL | 128 µg/mL | 128 µg/mL | 128 µg/mL | 128 µg/mL | 128 µg/mL | > 10 | 64 µg/mL | 128 µg/mL | 128 µg/mL | 128 µg/mL | 128 µg/mL | 128 µg/mL | > 1280 µg/mL | – |
| CCCN(CCC)C(=O)C[N+](C)(C)CCCCOc1ccc2ccc(=O)oc2c1CC=C(C)C.[Br-] | – | – | 16 µg/mL | > 128 µg/mL | 16 µg/mL | 32 µg/mL | 16 µg/mL | 16 µg/mL | > 80 | 32 µg/mL | 16 µg/mL | 16 µg/mL | 16 µg/mL | 32 µg/mL | 16 µg/mL | > 1280 µg/mL | – |
| CCCCCNC(=O)C[N+](C)(C)CCCCOc1ccc2ccc(=O)oc2c1CC=C(C)C.[Br-] | – | – | 8 µg/mL | 64 µg/mL | 8 µg/mL | 8 µg/mL | 8 µg/mL | 8 µg/mL | > 160 | 16 µg/mL | 8 µg/mL | 8 µg/mL | 8 µg/mL | 16 µg/mL | 8 µg/mL | > 1280 µg/mL | – |
| CCCNC(=O)C[N+](C)(C)CCCCOc1ccc2ccc(=O)oc2c1CC=C(C)C.[Br-] | – | – | 64 µg/mL | 128 µg/mL | 64 µg/mL | 64 µg/mL | 64 µg/mL | 64 µg/mL | > 20 | 64 µg/mL | 64 µg/mL | 32 µg/mL | 32 µg/mL | 64 µg/mL | 64 µg/mL | > 1280 µg/mL | – |
| CCCCNC(=O)C[N+](C)(C)CCCCOc1ccc2ccc(=O)oc2c1CC=C(C)C.[Br-] | – | – | 16 µg/mL | 128 µg/mL | 16 µg/mL | 16 µg/mL | 16 µg/mL | 32 µg/mL | > 40 | 32 µg/mL | 16 µg/mL | 16 µg/mL | 16 µg/mL | 32 µg/mL | 16 µg/mL | > 1280 µg/mL | – |
| CCCCN(CCCC)C(=O)C[N+](C)(C)CCCCOc1ccc2ccc(=O)oc2c1CC=C(C)C.[Br-] | – | – | 4 µg/mL | 64 µg/mL | 2 µg/mL | 2 µg/mL | 2 µg/mL | 2 µg/mL | > 640 | 8 µg/mL | 4 µg/mL | 2 µg/mL | 4 µg/mL | 4 µg/mL | 4 µg/mL | > 1280 µg/mL | – |
| CCCCCNC(=O)C[N+](C)(C)CCCCCOc1ccc2ccc(=O)oc2c1CC=C(C)C.[Br-] | – | – | 4 µg/mL | 64 µg/mL | 2 µg/mL | 64 µg/mL | 2 µg/mL | 4 µg/mL | > 320 | 4 µg/mL | 4 µg/mL | 2 µg/mL | 2 µg/mL | 4 µg/mL | 2 µg/mL | > 1280 µg/mL | – |
| CCn1cc(C(=O)O)c(=O)c2cc(F)c(N3CCNCC3)cc21 | – | – | – | – | – | – | – | – | – | – | – | – | – | – | – | – | Active |
| CCN(CC)C(=O)C[N+](C)(C)CCCCCOc1ccc2ccc(=O)oc2c1CC=C(C)C.[Br-] | – | – | 32 µg/mL | 128 µg/mL | 32 µg/mL | 32 µg/mL | 32 µg/mL | 32 µg/mL | 40 | 64 µg/mL | 32 µg/mL | 32 µg/mL | 32 µg/mL | 32 µg/mL | 32 µg/mL | > 1280 µg/mL | – |
